In PMC7073886, “Structure–Bioactivity Relationships of Lapatinib Derived Analogs against Schistosoma mansoni” (ACS Medicinal Chemistry Letters, 2020):
In brackets after ≈: the same amount, converted by molar mass.

Assays:
[1] = Aqueous pH 7.4 solubility; type: physicochemical; conditions: for solubility: aqueous buffer, thermodynamic from solid, phosphate buffer pH 7.4, 25 °C, 20-24 h, read-out: aq sol (aqueous solubility)
[2] = Log D7.4 shake-flask octanol-water; type: physicochemical; conditions: pH 7.4
Protocol: Log D7.4. Shake-flask octanol-water distribution coefficient was determined at pH 7.4 (Log D7.4). The aqueous solution used is 10 mM sodium phosphate pH 7.4 buffer. The method has been validated for Log D7.4 ranging from -2 to 5.0.
Human Plasma Protein Binding (PPB). PPB was determined using equilibrium dialysis (RED device) to separate free from bound compound. The amount of compound in plasma (10 µM initial concentration) and in dialysis buffer (pH 7.4 phosphate buffer) was measured by LC-MS/MS after equilibration at 37 °C in a dialysis chamber. The fraction unbound (fu) is reported.
Human Liver Microsomal Clint. In vitro intrinsic clearance was determined from human liver microsomes using a standard approach.11 Following incubation and preparation, the samples were analyzed using […]
Rat Hepatocyte Clint. In vitro intrinsic clearance was determined from rat hepatocytes using a standard approach.11 Following incubation and preparation, the samples were analyzed using LC/MS/MS. Refined […]
Calculated LogP and LogD values. Both LogP and LogD predictions are based on a modified version of the method12 where the predicted partition coefficients are composed of the molecules’ atomic increments.
General Chemistry. All starting materials were commercially obtained and were used without further purification, unless specified. Reaction solvents were purified by passage through alumina columns on a purification system manufactured by Innovative Technology (Newburyport, MA). NMR spectra were obtained on Varian NMR systems, operating at 400 or 500 MHz for 1 H acquisitions. LCMS analysis was performed using a Waters AllianceHT e2795 reverse phase HPLC (Waters SunFire C18 4.6 × 50 mm, 3.5 μm column), with a Waters 2996 photodiode array detector scanning from 210 nm to 600 nm, and Waters Micromass ZQ detector (electrospray ionization). Where required, final compounds were purified by preparative reverse phase HPLC (columns Waters Symmetry RP8 30 × 50 mm, 5 μm column, or OBD RP18 30 × 50 mm, 5 μm), with a single wavelength UV−visible detector and Waters Micromass ZQ (electrospray ionization).

[3] = Human plasma protein binding (equilibrium dialysis); type: in vitro ADME; conditions: read-out: human PPB (plasma protein binding) (converted); for fraction unbound: pH 7.4, 10 µM, 37 °C; for fraction unbound at 10 µM: pH 7.4, 37 °C
Rat hepatocyte Clint = type: in vitro ADME; conditions: rat hepatocytes, intrinsic clearance; for hepatocyte CLint: read-out: RH CLint
[4] = Human liver microsomal Clint; type: in vitro ADME; conditions: for microsomal CLint: read-out: HLM Clint
adult S. mansoni = assay: Phenotypic screen of adult S. mansoni worms, severity scores and descriptors; type: cell-based, Schistosoma mansoni; conditions: for Severity Scores (10 μM) 1 h / Severity Scores (10 μM) 5 h / Severity Scores (10 μM) 24 h / Severity Scores (10 μM) 48 h / Descriptors (10 µM) 1 h / Descriptors (10 µM) 5 h / Descriptors (10 µM) 24 h / Descriptors (10 µM) 48 h: adult S. mansoni; for Severity Scores (10 μM) 1 h / Severity Scores (10 μM) 5 h / Severity Scores (10 μM) 24 h / Severity Scores (10 μM) 48 h: scale 0 (no activity) to 4 (maximal activity); for bioactivity against adult S. mansoni: adult schistosomes; for Severity Scores (10 μM) 1 h / Severity Scores (10 μM) 5 h / Severity Scores (10 μM) 24 h / Severity Scores (10 μM) 48 h / bioactivity against adult S. mansoni: 10 μM; for Descriptors (10 µM) 1 h / Descriptors (10 µM) 5 h / Descriptors (10 µM) 24 h / Descriptors (10 µM) 48 h: phenotypic descriptors
From the text: Because the schistosome parasite can present multiple and dynamic phenotypic responses to chemical insult,[16] we employ a constrained nomenclature of descriptors to describe the changes in the parasite as a function of time and concentration (e.g., motility, density, and shape; and in the case of the adult parasite, an inability to adhere to the bottom of the assay dish). These descriptors are converted into severity scores on a scale of 0 (green)–4 (severest/red) that allow for partially quantitative comparisons of compound effects.[1]−[19] […] The descriptors themselves and their respective scores are detailed in the Supporting Information, Table S1. Severity score data are presented in the results (with the corresponding descriptors detailed in the Supporting Information, Tables S2–S8), and eight new analogs developed and synthesized in support of this effort are described. Finally, absorption, distribution, metabolism and excretion (ADME) data of all compounds presented in this work are reported in the Supporting Information, Table S15.
Table S1. Descriptors and associated severity scores used for S. mansoni adults.
R (rounded or shape altered 1
On sides (adults unable to 1
Shrunk (adults are shorter 1
surface (tegument) of adults)
dfailed to create analytical method
Maintenance of the Schistosoma mansoni life cycle (NMRI isolate), the preparation of adult worms (≥ 42-
days-old), and their co-incubation with test compounds were as described.7-9 Phenotypic responses were
visually recorded using a constrained nomenclature and converted to severity scores on a scale from zero
(no activity) to 4 (maximal activity).8, 9 Use of hamsters for maintaining the S. mansoni life-cycle was
approved by the Institutional Animal Care and Use Committee of the University of California San Diego.
The human myelomonocytic cell line THP -1 was grown at 37 °C and 5% CO2 in RPMI-1640 supplemented
with 10% iFBS, 2 mM glutamate, 100 U/mL penicillin and […] streptomycin.
Drug toxicity to HepG2 cells .10 HepG2 cells line were obtained from the American Type Culture
Collection and cultured in Minimal Essential Medium (MEM) supplemented with 0.19% sodium
bicarbonate, 10% Fetal Bovine Serum, 2 mM L -glutamine, 0.1 mM MEM non-essential amino, 0.009
mg/mL insulin, 1.76 mg/mL bovine serum albumin. The viability of the cells was measured using the MTT
(thiazolyl blue reduction) method. Briefly, ninety -six-well plates were seeded with 2.5 × 10^4 cells/well in
170 ml of culture medium and incubated overnight in 5% CO 2 at 37 °C. Cells were exposed to different
experimental compounds in DMSO. After 48 hours incubation, the viability of the cells was assessed using
MTT (thiazolyl blue reduction) as a dose response assay (11 two -fold serial dilutions) to obtain a calculated
IC50 determination. 4-Azaindolo[2,1-b]quinazoline-6,12-dione is used as a toxicity positive control and
each assay plate includes the following 3 additional controls: a) background control: no cells and no drug
was added, b) target control: cells added but no drugs, and c) DMSO control: same as the target control
except the culture media contains 0.6% DMSO. Absorbance was determined in all wells using a Perkin
Elmer, Ensight plate reader. The fifty percent inhibitory concentrations (IC50’s) were determined using
GraphPad Prism nonlinear regr ession (sigmoidal dose -response, variable slope) equation .
ADME Experiment Protocols
Aqueous pH 7.4 Solubility. Compounds were dried down from 10 mM DMSO solutions using centrifugal
evaporation technique. Phosphate buffer (0.1 M pH 7.4) was added and StirStix were inserted in the glass
vials, with shaking then performed at a constant temperature of 25 °C for 20 -24 h. This step was followed
by double centrifugation with a tip wash in between, to ensure that no residues of the dried compounds
interfere. The solutions were diluted before analysis and quantification using LC/MS/MS was performed.

[5] = human liver microsomes, intrinsic clearance

SMILES	logD [2]	fraction unbound [3]	hepatocyte CLint (Rat hepatocyte Clint)	solubility [1]	Severity Scores (10 μM) 1 h (adult S. mansoni)	Severity Scores (10 μM) 5 h (adult S. mansoni)	Severity Scores (10 μM) 24 h (adult S. mansoni)	Severity Scores (10 μM) 48 h (adult S. mansoni)	bioactivity against adult S. mansoni (adult S. mansoni)	Descriptors (10 µM) 1 h (adult S. mansoni)	Descriptors (10 µM) 5 h (adult S. mansoni)	Descriptors (10 µM) 24 h (adult S. mansoni)	Descriptors (10 µM) 48 h (adult S. mansoni)	further results
COc1ccc(NC(=O)c2ccc(-c3cccc(N4CCOCC4)c3)cc2O)cc1Cl [7d]	4.7	–	300 µL/min/1e6 cells	0.1 µM (≈ 0.0439 µg/mL)	2	2	3	4	phenotypic response after 1 h which increased in severity over time	S, on sides	S, on sides	S, on sides, dark	–	fraction unbound at 10 µM [3]: < 0.01; microsomal CLint [4, 5]: 12 µL/min/mg
CCCN1CCCN(c2ncc(-c3ccc4c(Nc5cnccn5)ccnc4c3C)cn2)CC1 [9d]	3.3	0.06	36 µL/min/1e6 cells	–	1	1	4	4	strongly bioactive by 24 h	–	–	Unc, deg	Unc, deg	–
Cc1c(-c2cnc(N3CCCN(C)CC3)nc2)ccc2c(Nc3cnccn3)ccnc12 [9b]	2.5	0.18	27 µL/min/1e6 cells	–	0	0	0	0	no bioactivity	none	none	none	none	–
Fc1cccc(COc2ccc(Nc3ncnc4ccc(-c5cccc(N6CCOCC6)c5)cc34)cc2Cl)c1 [compound 2]	–	–	–	< 1 µM	–	–	–	–	–	–	–	–	–	fraction unbound at 10 µM [3]: < 0.01; RH CLint (Rat hepatocyte Clint): 44 µL/min/10^6 cells; HLM Clint [4, 5]: 63 μL/min/mg protein
COc1ccc(Nc2ccnc3cc(-c4cnc(N5CCCN(C)CC5)nc4)ccc23)cc1Cl [5d]	2.7	–	9 µL/min/1e6 cells	6 µM (≈ 2.85 µg/mL)	1	3	4	4	severe phenotypic responses	–	–	–	–	decrease in aqueous solubility compared with 3 ([1]; relative to 3): 7 fold; microsomal CLint [4, 5]: 120 µL/min/mg
c1cc(-c2ccc3c(c2)ncc2c4ccccc4[nH]c32)cc(N2CCOCC2)c1 [6a]	5.1	–	24 µL/min/1e6 cells	0.1 µM (≈ 0.0379 µg/mL)	0	1	0	1	minimal bioactivity after 5 h	none	–	none	–	microsomal CLint [4, 5]: 57 µL/min/mg
Cc1c(-c2cnc(N3CCCNCC3)nc2)ccc2c(Nc3cnccn3)ccnc12 [9e]	1.6	0.24	5.3 µL/min/1e6 cells	–	0	2	4	4	phenotypic response after 5 h	–	–	–	–	–

The next lines start with results.

logD [2]	fraction unbound [3]	hepatocyte CLint (Rat hepatocyte Clint)	solubility [1]	SMILES	Severity Scores (10 μM) 1 h (adult S. mansoni)	Severity Scores (10 μM) 5 h (adult S. mansoni)	Severity Scores (10 μM) 24 h (adult S. mansoni)	Severity Scores (10 μM) 48 h (adult S. mansoni)	bioactivity against adult S. mansoni (adult S. mansoni)	Descriptors (10 µM) 1 h (adult S. mansoni)	Descriptors (10 µM) 5 h (adult S. mansoni)	Descriptors (10 µM) 24 h (adult S. mansoni)	Descriptors (10 µM) 48 h (adult S. mansoni)	further results
2.5	0.18	42 µL/min/1e6 cells	–	Cc1cc2c(Nc3cnccn3)ccnc2cc1-c1cnc(N2CCCN(C)CC2)nc1 [8b]	4	4	4	4	severe phenotypic response recorded after 1 h	–	–	–	–	improvement in solubility compared to 8a ([1]; relative to 8a): > 33,500 fold; clearance increase compared to 8a ([4]; relative to 8a): 2 fold
2.3	0.3	< 1 µL/min/1e6 cells	–	Cc1cc2c(Nc3cnccn3)ccnc2cc1-c1cnc(N2CCCNCC2)nc1 [8e]	0	0	0	0	inactive against schistosomes	none	none	none	none	improved metabolic stability in comparison to 8a ([4]; relative to 8a): 10 fold
–	0.12	21 µL/min/1e6 cells	–	CCN1CCCN(c2ncc(-c3ccc4c(Nc5cnccn5)ccnc4c3C)cn2)CC1 [9c]	0	0	0	0	no bioactivity	none	none	none	none	–
3.2	0.12	35 µL/min/1e6 cells	–	CCCN1CCCN(c2ncc(-c3cc4nccc(Nc5cnccn5)c4cc3C)cn2)CC1 [8d]	1	1	3	3	bioactivity being detected after 1 h	–	–	–	–	–
2.6	0.16	32 µL/min/1e6 cells	–	CCN1CCCN(c2ncc(-c3cc4nccc(Nc5cnccn5)c4cc3C)cn2)CC1 [8c]	0	4	4	4	–	none	–	–	–	–
